Data as given in US11214803B2, “Modulators of YAP1 expression” (Ionis Pharmaceuticals, Inc., priority 2019, dated 2022).
Strand notation (5' to 3'): a small letter for the sugar, then the base; units joined by * are phosphorothioate-linked, units joined directly phosphodiester-linked; [ ] holds rarer units or linkages, { } end groups; capitals alone tell only the bases. k = constrained ethyl (cEt); [5mC] = 5-methylcytosine; d = 2'-deoxy (DNA)

How the values were obtained:
Type in all cases: cell-based
[1] = tested on: Yap1 mRNA; assay: Antisense inhibition of human Yap1 in A-431 cells by cEt gapmers, single dose (Example 4, RTS4814)
How it was run: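 A-431 cells took up 3-10-3 cEt gapmers (16-mer, full phosphorothioate, 5-methylcytosines) by free uptake at 2,000 nM for about 48 h. Yap1 mRNA was quantified by qRT-PCR, normalized to total RNA (RIBOGREEN), and reported as % of untreated control.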

[2] = tested on: Yap1 mRNA; assay: Antisense inhibition of human Yap1 in SNU-449 cells by modified oligonucleotides, single dose (Example 5, RTS36584); conditions: Yap1 mRNA, percent of untreated control; modified oligonucleotides targeting SEQ ID NO: 1 and 2; Table 47
How it was run: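 Each modified oligonucleotide is applied by free uptake to SNU-449 cultures at 2,000 nM, and total RNA is harvested around 48 h later. Yap1 transcript, quantified with the RTS36584 set and corrected for RIBOGREEN RNA content, is given as % UTC. Asterisks mark sequences overlapping the amplicon.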

[3] = tested on: Yap1 mRNA; assay: Dose-dependent inhibition of human Yap1 in A-431 cells (Example 8, 10,000 cells per well, RTS4814); conditions: A-431 cells; for IC50: Yap1 mRNA
How it was run: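 A-431 cells (10,000/well) dosed with modified oligonucleotides by free uptake; Yap1 mRNA measured ~48 h later with primer-probe set RTS4814, normalized to total RNA (RIBOGREEN). Values are % of untreated control; IC50 from linear regression on log/linear plot.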

[4] = Yap1 mRNA remaining as percent of untreated control, 3-10-3 cEt gapmers, A-431 cells, Table 36
[5] = Yap1 mRNA remaining as percent of untreated control, 3-10-3 cEt gapmers, A-431 cells, Table 37

Substance | YAP1 (% UTC) ([1]; Table 17, A-431 cells, 5,000 cells per well, free uptake, 2,000 nM, approximately 48 hours, RTS4814, normalized to RIBOGREEN, Yap1 mRNA relative to untreated control cells) | YAP1 (% UT) [2] | YAP1 (% UTC) ([1]; Table 14, A-431 cells, 5,000 cells per well, free uptake, 2,000 nM, approximately 48 hours, RTS4814, normalized to RIBOGREEN, Yap1 mRNA relative to untreated control, * = targets amplicon region of primer probe set) | YAP1 (% UTC) [1, 4] | % UTC (Yap1 mRNA) ([3]; 31.3 nM) | % UTC (Yap1 mRNA) ([3]; 125.0 nM) | % UTC (Yap1 mRNA) ([3]; 500.0 nM) | % UTC (Yap1 mRNA) ([3]; 2000.00 nM) | IC50 [3] | YAP1 (% UTC) [1, 5] | YAP1 (% UTC) ([1]; Table 15, A-431 cells, 5,000 cells per well, free uptake, 2,000 nM, approximately 48 hours, RTS4814, normalized to RIBOGREEN, Yap1 mRNA relative to untreated control, * = targets amplicon region of primer probe set)
1074755 (CACTTTTACATTAGGA; antisense; chemistry not fully specified) [Compound 1074755] | 3 % UTC | 23 % UT | – | – | – | – | – | – | – | – | –
1074464 (kT*kT*kA*dG*dA*dG*dT*dA*dT*dG*dT*dG*dG*k[5mC]*kA*kA) [Compound 1074464] | – | 5 % UT | 2 % UTC | – | – | – | – | – | – | – | –
1074678 (antisense kT*kA*kA*dT*d[5mC]*dT*dG*dT*dG*dG*d[5mC]*dT*dA*k[5mC]*kT*kG) [compound 1074678] | – | – | – | 7 % UTC | 73 % UTC | 37 % UTC | 16 % UTC | 10 % UTC | 100 nM | – | –
1075222 (kG*kT*kA*dT*dT*dT*dG*dG*dA*d[5mC]*dA*dA*d[5mC]*kT*k[5mC]*kT; antisense) [compound 1075222] | – | – | – | 3 % UTC | 75 % UTC | 30 % UTC | 8 % UTC | 5 % UTC | 100 nM | – | –
1076439 (k[5mC]*kT*kT*dA*dT*dA*dT*dG*dG*dT*dT*dT*dT*kG*kT*kG) [compound 1076439] | – | – | – | – | 48 % UTC | 13 % UTC | 6 % UTC | 5 % UTC | < 20 nM | 4 % UTC | –
1075990 (k[5mC]*kG*kT*dT*dA*dT*dT*dA*dT*dG*d[5mC]*dA*dG*k[5mC]*kA*kA; antisense) [compound 1075990] | – | – | – | 1 % UTC | 28 % UTC | 6 % UTC | 3 % UTC | 3 % UTC | < 20 nM | – | –
1075766 (kG*kG*kA*dG*dA*dA*d[5mC]*dA*d[5mC]*dA*dA*dG*dA*kG*kG*k[5mC]; antisense) [compound 1075766] | – | – | – | 5 % UTC | 56 % UTC | 21 % UTC | 11 % UTC | 8 % UTC | < 20 nM | – | –
1076534 (kA*k[5mC]*kT*dA*dT*dA*dA*dA*dG*d[5mC]*dA*dA*dT*kG*k[5mC]*kG; antisense) [compound 1076534] | – | – | – | 4 % UTC | 88 % UTC | 48 % UTC | 20 % UTC | 10 % UTC | 200 nM | – | –
1076119 (kG*kT*kT*dA*dA*dA*dT*dA*dT*dG*dA*dA*dT*kT*kG*kG; antisense) [compound 1076119] | – | – | – | – | 82 % UTC | 35 % UTC | 12 % UTC | 6 % UTC | 100 nM | 7 % UTC | –
1074487 (kA*kG*kA*dT*dT*d[5mC]*dA*d[5mC]*dT*dA*dA*dT*dA*kT*kG*kG; antisense) [compound 1074487] | – | – | – | – | 73 % UTC | 28 % UTC | 11 % UTC | 6 % UTC | 100 nM | 7 % UTC | –
1076183 (k[5mC]*kT*kT*d[5mC]*dT*dA*dT*dA*dA*dT*dT*dA*dG*k[5mC]*k[5mC]*kA; antisense) [compound 1076183] | – | – | – | – | 65 % UTC | 22 % UTC | 9 % UTC | 6 % UTC | 40 nM | 7 % UTC | –
1076481 (antisense k[5mC]*kT*kA*dA*dG*dT*dA*dA*dG*dG*dT*dT*dT*k[5mC]*k[5mC]*k[5mC]) [Compound 1076481] | – | ^mCksTksAksAdsGdsTdsAdsAdsGdsGds13 % UT | – | – | – | – | – | – | – | – | 1 % UTC
